Data on ten compounds can be found in PubChem BioAssay (NCI).

Test systems include SK-MEL-5 melanoma; HCT-116 colon; SN12C renal; IGROV1 ovarian; SF-539 CNS; OVCAR-3 ovarian; SNB-75 CNS; SNB-19 CNS; NCI-H522 lung; SR leukemia.
Common to all, as to assay: NCI anticancer screen, dose series, 48 h

“And” between values parts separate entries of the source, which are not always exact repeats. Equal values may be shown once.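 Briefly, cells in 96-well plates were exposed to five compound concentrations for 48 h, and endpoints were estimated by linear interpolation. Here, GI50 denotes the concentration required for 50% inhibition of growth. TGI: concentration producing complete growth inhibition.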

For `CC1(C)CCC[C@]23C(=O)O[C@](O)(C(=O)C4=C[C@@](C)(/C=C/CCCc5ccc6ccc7cccc8ccc5c6c78)CC[C@@]42O)[C@@H]13`, the GI50 with SK-MEL-5 melanoma was 0.185 µM; in the test on HCT-116 colon, 0.132 µM; in the test with SN12C renal, 0.164 µM; with IGROV1 ovarian, 0.175 µM; with SF-539 CNS it was 0.17 µM; in the test with OVCAR-3 ovarian it was 0.174 µM. For the same compound, the GI50 in the test on SNB-75 CNS was 0.149 µM; in the test with SNB-19 CNS it was 0.188 µM; with NCI-H522 lung it was 0.2 µM; in the test on SR leukemia it was 0.292 µM. In addition, the TGI in the test with SK-MEL-5 melanoma was 0.327 µM; in the test with HCT-116 colon, 0.299 µM; in the test with SN12C renal it was 0.339 µM; with IGROV1 ovarian, 0.329 µM; with SF-539 CNS, 0.322 µM; in the test with OVCAR-3 ovarian, 0.336 µM. The TGI amounted to 0.284 µM in the test on SNB-75 CNS, 0.414 µM in the test on SNB-19 CNS and 0.475 µM in the test on NCI-H522 lung.
Turning to `COc1ccc(-c2ccc(/C=C/C(=O)NO)cc2)cc1`, the GI50 was 1.1 µM in the test with SK-MEL-5 melanoma; 0.451 µM with HCT-116 colon; 0.864 µM in the test with SN12C renal; 0.768 µM in the test on IGROV1 ovarian; 0.913 µM in the test on SF-539 CNS; 0.518 µM in the test with OVCAR-3 ovarian. Further, the GI50 is 1.38 µM in the test with SNB-75 CNS, 2.42 µM with SNB-19 CNS, 0.801 µM in the test with NCI-H522 lung and 0.378 µM with SR leukemia. Besides, the TGI was determined as 3 µM in the test with SK-MEL-5 melanoma; 11.4 µM in the test with HCT-116 colon; 10.9 µM with SN12C renal; 9.66 µM in the test on IGROV1 ovarian; 5.18 µM with SF-539 CNS; 2.76 µM with OVCAR-3 ovarian. The TGI in the test with SNB-75 CNS was 5.06 µM; in the test with SNB-19 CNS, 11.4 µM; with NCI-H522 lung, 16.4 µM; in the test with SR leukemia it was more than 20.6 µM.
Regarding `O=C1c2ccccc2C(=O)c2c1ccc(C(Br)Br)c2[N+](=O)[O-]`, the GI50 was 1.77 µM with SK-MEL-5 melanoma; 0.739 µM with HCT-116 colon; 1.83 µM in the test on SN12C renal; 1.15 µM with IGROV1 ovarian; 1.76 µM with SF-539 CNS; 1.63 µM in the test with OVCAR-3 ovarian. Besides, the GI50 in the test with SNB-75 CNS was 14.1 µM; with SNB-19 CNS it was 1.93 µM; with NCI-H522 lung, 1.84 µM; in the test with SR leukemia, 0.259 µM. The TGI with SK-MEL-5 melanoma worked out at 3.73 µM; in the test with HCT-116 colon, 2.19 µM; with SN12C renal, 3.86 µM; with IGROV1 ovarian it was 2.87 µM; in the test on SF-539 CNS, 3.41 µM; with OVCAR-3 ovarian, 3.04 µM. Further, the TGI in the test on SNB-75 CNS worked out at 28.7 µM; with SNB-19 CNS, 4.42 µM; with NCI-H522 lung it was 3.46 µM; in the test on SR leukemia, 1.75 µM.
As to `Cc1ccc2nc3c(C)c(Cl)c(=O)cc-3sc2c1`, the TGI is 29.7 µM in the test on SK-MEL-5 melanoma; 58 µM in the test on HCT-116 colon; more than 100 µM in the test with SN12C renal; more than 100 µM in the test on IGROV1 ovarian; 62.3 µM in the test with SF-539 CNS; more than 100 µM in the test on OVCAR-3 ovarian. Moreover, the TGI in the test on SNB-75 CNS is 56.3 µM; in the test on SNB-19 CNS, more than 100 µM; with NCI-H522 lung, more than 56.1 µM; in the test on SR leukemia, more than 31.6 µM.
As for `O=C1c2ccccc2C(=O)c2c(NCCCNCCO)ccc(NCCCNCCO)c21`, the TGI with SK-MEL-5 melanoma is 28.7 µM; in the test with HCT-116 colon, 16.8 µM; in the test on SN12C renal, 14.4 µM; in the test with IGROV1 ovarian it was more than 49 µM; in the test on SF-539 CNS it was 15.3 µM; with OVCAR-3 ovarian, 27.3 µM. The TGI with SNB-75 CNS amounted to 23.3 µM; in the test with SNB-19 CNS it was 20.9 µM; in the test with NCI-H522 lung, 15.5 µM; in the test on SR leukemia it was 20.8 µM.
`C=CN1C(=O)OC(c2ccccc2)C1c1ccccc1` (stereo not given): the GI50 with SK-MEL-5 melanoma, in the test with HCT-116 colon, with SN12C renal, with IGROV1 ovarian, in the test on OVCAR-3 ovarian and in the test with SNB-19 CNS was more than 100 µM in each case. Further, the GI50 with NCI-H522 lung is more than 100 µM. Also, the TGI in the test with SK-MEL-5 melanoma, with HCT-116 colon, in the test on SN12C renal, in the test on IGROV1 ovarian, in the test on SF-539 CNS and in the test on OVCAR-3 ovarian was more than 100 µM in each case. The TGI with SNB-75 CNS is 21.9 µM and > 100 µM; with SNB-19 CNS, more than 100 µM; in the test on NCI-H522 lung, more than 100 µM; in the test on SR leukemia, more than 100 µM.
For `Cl.[Pt].[c-]1ccccc1-c1ccccn1.c1ccc(P(c2ccccc2)C([PH+](c2ccccc2)c2ccccc2)[PH+](c2ccccc2)c2ccccc2)cc1`, the GI50 in the test with SK-MEL-5 melanoma was 1.25 µM; with HCT-116 colon it was 1.58 µM; with SN12C renal it was 0.942 µM; in the test on IGROV1 ovarian, 2.18 µM; in the test with SF-539 CNS it was 1.54 µM; in the test on OVCAR-3 ovarian it was 1.59 µM. Also, the GI50 is 1.64 µM in the test on SNB-75 CNS, 0.764 µM with SNB-19 CNS, 1.57 µM with NCI-H522 lung and 1.21 µM with SR leukemia. Also, the TGI with SK-MEL-5 melanoma was 2.8 µM; in the test with HCT-116 colon it was 7.11 µM; with SN12C renal, 7.03 µM; in the test with IGROV1 ovarian it was more than 100 µM; in the test with SF-539 CNS, 5.6 µM; in the test with OVCAR-3 ovarian it was 7.99 µM. Further, the TGI in the test on SNB-75 CNS stood at 23.5 µM; with SNB-19 CNS it was 21.2 µM; in the test with NCI-H522 lung it was 7.14 µM; in the test on SR leukemia, 28.6 µM.
As to `CCN1CCN(c2nc(NNC(=O)Cc3ccccc3)nc(N3CCN(C(c4ccccc4)c4ccccc4)CC3)n2)CC1`, the GI50 was 1.71 µM in the test with SK-MEL-5 melanoma; 1.72 µM with HCT-116 colon; 1.85 µM with SN12C renal; 2.03 µM in the test on IGROV1 ovarian; 1.78 µM with SF-539 CNS; 2 µM in the test with OVCAR-3 ovarian. Besides, the GI50 is 1.78 µM in the test on SNB-75 CNS, 3.35 µM with SNB-19 CNS, 1.99 µM in the test with NCI-H522 lung and 1.92 µM in the test with SR leukemia. Further, the TGI in the test on SK-MEL-5 melanoma is 3.12 µM; with HCT-116 colon, 3.13 µM; in the test on SN12C renal, 3.44 µM; in the test on IGROV1 ovarian, 5.02 µM; with SF-539 CNS, 3.24 µM; in the test with OVCAR-3 ovarian, 4.08 µM. In addition, the TGI stood at 4.36 µM with SNB-75 CNS, 11.7 µM in the test with SNB-19 CNS, 4.18 µM in the test on NCI-H522 lung and 5.31 µM in the test on SR leukemia.
With `CCCS(=O)(=O)Nc1ccc(F)c(C(=O)c2c[nH]c3ncc(-c4ccc(Cl)cc4)cc23)c1F`, the GI50 in the test on SK-MEL-5 melanoma was 0.471 µM and 1.85 µM; in the test with HCT-116 colon, 4.46 µM and 5.81 µM; with SN12C renal, 4.52 µM and > 8.4 µM; in the test on IGROV1 ovarian, 3.52 µM and 3.63 µM; with SF-539 CNS, 3.91 µM and 4.51 µM; in the test with OVCAR-3 ovarian, 7.65 µM and > 8.66 µM. Besides, the GI50 in the test on SNB-75 CNS was 2.48 µM and 2.38 µM; in the test with SNB-19 CNS it was 6.56 µM and > 10 µM; in the test on NCI-H522 lung, 7.14 µM and > 7.96 µM; in the test on SR leukemia it was 2.1 µM and 2.92 µM. Also, the TGI with SK-MEL-5 melanoma is 13.6 µM and > 10 µM; in the test on HCT-116 colon, 16.9 µM and > 10 µM; in the test with SN12C renal, 21.9 µM and > 10 µM; in the test with IGROV1 ovarian, 14.4 µM and > 10 µM; with SF-539 CNS, 17.1 µM and > 10 µM; with OVCAR-3 ovarian it was 25.5 µM and > 10 µM. The TGI in the test with SNB-75 CNS is 16.6 µM and > 10 µM; in the test with SNB-19 CNS it was 29.6 µM and > 10 µM; in the test with NCI-H522 lung it was 22.3 µM and > 10 µM; with SR leukemia it was 13.9 µM and > 10 µM.
Consider `Nc1ncnc2c1c(C(F)(F)F)cn2[C@@H]1O[C@H](CO)[C@@H](O)[C@H]1O`, for which the GI50 with SK-MEL-5 melanoma was 0.402 µM; in the test on HCT-116 colon it was 0.213 µM; in the test on SN12C renal, 0.157 µM; with IGROV1 ovarian, 0.619 µM; in the test on SF-539 CNS it was 0.642 µM; in the test on OVCAR-3 ovarian it was 0.398 µM. Besides, the GI50 was 0.708 µM in the test on SNB-75 CNS, 0.793 µM with SNB-19 CNS, 0.319 µM with NCI-H522 lung and 0.341 µM in the test with SR leukemia. Moreover, the TGI in the test on SK-MEL-5 melanoma is 5.02 µM; in the test with HCT-116 colon, more than 100 µM; with SN12C renal, more than 100 µM; in the test on IGROV1 ovarian it was more than 100 µM; in the test with SF-539 CNS, 2.73 µM; in the test on OVCAR-3 ovarian, more than 100 µM. The values for the TGI with SNB-75 CNS, with SNB-19 CNS and with NCI-H522 lung were 3.62 µM, more than 100 µM and 3.15 µM, respectively.
